In general, DC50 refers to the concentration giving 50% degradation.

Bounds are passed on as bounds.

The target of the assay is T1, IRAK4 (Homo sapiens, UniProt Q9NWZ3).
T1 construct: endogenous in cells; host or cells: OCI-Ly10
T1 sequence (Q9NWZ3 1-460): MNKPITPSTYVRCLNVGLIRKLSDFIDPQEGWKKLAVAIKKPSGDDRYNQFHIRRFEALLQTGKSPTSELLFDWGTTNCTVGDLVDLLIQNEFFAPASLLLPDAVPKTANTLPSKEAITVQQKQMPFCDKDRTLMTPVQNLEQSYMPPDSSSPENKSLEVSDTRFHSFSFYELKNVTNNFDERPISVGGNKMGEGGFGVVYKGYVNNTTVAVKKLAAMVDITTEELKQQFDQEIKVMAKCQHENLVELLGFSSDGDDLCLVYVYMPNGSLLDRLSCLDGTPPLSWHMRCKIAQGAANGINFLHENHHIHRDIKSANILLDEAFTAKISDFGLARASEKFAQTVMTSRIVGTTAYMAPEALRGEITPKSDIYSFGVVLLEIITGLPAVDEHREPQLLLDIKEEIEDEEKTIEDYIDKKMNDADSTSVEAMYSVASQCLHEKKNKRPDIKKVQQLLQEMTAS
In words: OCI-LY10 IRAK MSD assay DC50 (IRAK4 degradation). Conditions: OCI-Ly10 cells, incubated for 4 hr, concentration of compound required to degrade 50% of protein. The format is cell-based. As for the experimental part:
A MSD assay is run to determine the concentration of compound required to degrade 50% of protein (DC50).
• Compounds were reconstituted to 10 mM in stock solutions. The stock solutions were diluted to 5 mM and 45 μL of each dilution was transferred to a 384 pp-plate. A 3 fold, 8-point serial dilution was performed by transferring 15 μL of compound into 30 μL DMSO using Janus. • 20 nL of each compound were added into each well of a 96-well plate (Corning3799). • OCI-Ly10 cells were seeded into the 96-well plate at 3.0*10e^5 cells/100 μL/well. • The cell plate was shaken at 720 rpm for 5 min and incubated for 4 hr. • 100 μL of cells were transferred into the 96-PCR plate and spun down at high speed for 5 mins. • The supernatant was discarded and 100 μL of RIPA lysis buffer with proteinase inhibitors was added per well. The plate was then sealed and shaken at 600 rpm and 4° C. for about 20 min. • The plate was then spun down at high speed (about 3200 g) for 30 min and then frozen in a −80° C. fridge. • A bare MSD plate (L15XA-3) was coated with 2 μg/mL of capture antibody (mouse Anti-IRAK4 antibody [2H9], ab119942) in PBS to 40 μL/well and incubated overnight at 4° C.
• The MSD coated plate was washed 3× (150 μL/well) with 1×TBST (CST #9997S). • The MSD plate was then blocked with 150 μL of blocking buffer [3% Blocker A (MSD, R93BA-4) in TBST]/well and shaken for 1 hr at RT and 600 rpm. • The MSD plate was washed 3× (150 μL/well) with 1×TBST. The sample RIPA lysates were then added to the MSD plate (50 μL/well) and shaken for 1 hr at RT and 600 rpm. • The MSD plate was washed 3× (150 μL/well) with 1×TBST and the primary detection antibody (Rabbit Anti-IRAK4 antibody [Y279], ab32511) was added to a final concentration of 1 μg/ml with 25 μL/well. The plate was then shaken for 1 hr at RT and 600 rpm. • The MSD plate was washed 3× (150 μL/well) with 1×TBST and the secondary detection antibody, SULFO-TAG anti-species antibody (Anti Rabbit Antibody (R32AB-5) MSD, R32AB-1) was added to a volume of 25 μL/well at a final concentration of 1 μg/ml. The plate was then shaken for 1 hr at RT and 600 rpm. • The MSD plate was then washed 3× (150 μL/well) with 1×TBST. • 1×MSD reading buffer was then added (150 μL/well) and the plate […].
(MSD, R92TC-2) • The MSD instrument was then read.
The remaining activity was calculated following the formula below:
• The DC50 was calculated by fitting the Curve using Xlfit (v5.3.1.3), equation 201: […]
The letter codes for IRAK4 DC50 indicate the concentration of compound required to degrade 50% of protein: A (<0.01 μM), B (0.01-0.1 μM), C (>0.1-0.2 μM), D (>0.2 μM).
`C[C@H]1CN(C[C@H]2CC[C@H](n3cc(NC(=O)c4cnn5ccc(N6C[C@H]7C[C@@H]6CO7)nc45)c(C(F)F)n3)CC2)CC[C@@H]1OCC#Cc1cccn2c(N3CCC(=O)NC3=O)cnc12` [I-61] displayed a DC50 of less than 10 nM.

For `COc1cc2nn([C@H]3CC[C@H](CN(C)C4CCN(c5ccn6c(N7CCC(=O)NC7=O)cnc6c5)CC4)CC3)cc2cc1NC(=O)c1cncc(Cl)c1` [I-87], the DC50 is 10 to 100 nM.

Regarding `COc1cc2nn([C@H]3CC[C@H](CN4CCC(c5cccn6c(N7CCC(=O)NC7=O)cnc56)CC4)CC3)cc2cc1NC(=O)c1cc(F)cc(C(F)(F)F)c1` [I-82], the half-maximal degradation concentration (DC50) lay within 10 to 100 nM.

The molecule `COc1cc2nn([C@H]3CC[C@H](CN4CCCN(c5cccn6c(N7CCC(=O)NC7=O)cnc56)CC4)CC3)cc2cc1NC(=O)c1cccc(C(F)(F)F)n1` [I-47] gave a DC50 of 10 to 100 nM.

For the molecule `O=C1CCN(c2cnc3cc(C4CCN(C[C@H]5C[C@H](n6cc7cc(NC(=O)c8cccc(C(F)(F)F)n8)ccc7n6)C5)CC4)ccn23)C(=O)N1` [I-85], the DC50 was more than 200 nM.

Take `COc1cc2nn([C@H]3CC[C@H](CN(C)C4CCN(c5cccn6c(N7CCC(=O)NC7=O)cnc56)CC4)CC3)cc2cc1NC(=O)c1cncc(Cl)c1` [I-88]: the DC50 is more than 200 nM.

On to `COc1cc2nn([C@H]3CC[C@H](CN4CCC(c5cccn6c(N7CCC(=O)NC7=O)cnc56)CC4)CC3)cc2cc1NC(=O)c1cncc(C#N)c1` [I-83], for which the 50% degradation concentration (DC50) lay within 100 to 200 nM.

`COc1cc2nn([C@H]3CC[C@H](CN4C5CC4CN(c4cccn6c(N7CCC(=O)NC7=O)cnc46)C5)CC3)cc2cc1NC(=O)c1cccc(C(F)(F)F)n1` [I-57] registered a DC50 of 10 to 100 nM.

For `COc1cc2nn([C@H]3CC[C@H](CN4CCC(c5ccn6c(N7CCC(=O)NC7=O)cnc6c5)CC4)CC3)cc2cc1NC(=O)c1cc(F)cc(C(F)(F)F)c1` [I-81], the DC50 was 10 to 100 nM.

For the molecule `CN(C[C@H]1CC[C@H](n2cc3cc(NC(=O)c4cccc(C(F)(F)F)n4)ccc3n2)CC1)C1CCN(c2ccn3c(N4CCC(=O)NC4=O)cnc3c2)CC1` [I-35], the DC50 was less than 10 nM.

Turning to `O=C1CCN(c2cnc3cc(C4CCN(C[C@H]5CC[C@H](n6cc7cc(NC(=O)c8cccc(C(F)(F)F)n8)ncc7n6)CC5)CC4)ccn23)C(=O)N1` [I-37], the DC50 is more than 200 nM.

On to `O=C1CCN(c2cncc3c(C4CCN(C[C@H]5CC[C@H](n6cc7cc(NC(=O)c8cccc(C(F)(F)F)n8)ccc7n6)CC5)CC4)cccc23)C(=O)N1` [I-10], for which the DC50 lay in the range of 10 to 100 nM.

Take `CN(C[C@H]1CC[C@H](n2cc3cc(NC(=O)c4cccc(C(F)(F)F)n4)ccc3n2)CC1)C1CCN(c2cccn3c(N4CCC(=O)NC4=O)cnc23)CC1` [I-27]: the DC50 was more than 200 nM.

The molecule `O=C1CCN(c2cnc3c(C4CCN(C[C@H]5CC[C@H](n6cc7cc(NC(=O)c8cccc(C(F)(F)F)n8)ccc7n6)CC5)CC4)cccn23)C(=O)N1` [I-28] displayed a DC50 of more than 200 nM.

With `COc1cc2nn([C@H]3C[C@H](CN4CCC(c5cccc6c(N7CCC(=O)NC7=O)cncc56)CC4)C3)cc2cc1NC(=O)c1cccc(C(F)(F)F)n1` [I-40], the DC50 fell in the range of 10 to 100 nM.

For `COc1cc2nn([C@H]3CC[C@H](CN4C5CCC4CN(c4cccn6c(N7CCC(=O)NC7=O)cnc46)C5)CC3)cc2cc1NC(=O)c1cccc(C(F)(F)F)n1` [I-53], the DC50 is less than 10 nM.

As for `O=C1CCN(c2cnc3cc(C4CCN(C[C@H]5C[C@H](n6cc7cc(NC(=O)c8cccc(C(F)(F)F)n8)ccc7n6)C5)CC4)ccn23)C(=O)N1` [I-38], the 50% degradation concentration (DC50) lay in the range of 10 to 100 nM.

`C[C@H]1CN(C[C@H]2C[C@H](n3cc(NC(=O)c4cnn5ccc(N6C[C@H]7C[C@@H]6CO7)nc45)c(C(F)F)n3)C2)CC[C@@H]1OCC#Cc1ccn2c(N3CCC(=O)NC3=O)cnc2c1` [I-59] yielded a DC50 of less than 10 nM.

Molecule `CN(C[C@H]1CC[C@H](n2cc3cc(NC(=O)c4cccc(C(F)(F)F)n4)ccc3n2)CC1)C1CCN(c2ccc3c(N4CCC(=O)NC4=O)cncc3c2)CC1` [I-19] gave a DC50 of 10 to 100 nM.

On to `COc1cc2nn([C@H]3CC[C@H](CN4CCN(c5ccn6c(N7CCC(=O)NC7=O)cnc6c5)CC4)CC3)cc2cc1NC(=O)c1cccc(C(F)(F)F)n1` [I-68], for which the DC50 is less than 10 nM.

Consider `CC(C)Nc1cc(-c2ccc3cc(C#N)cnn23)ncc1C(=O)N[C@H]1CC[C@H](CN2CCC(c3cccn4c(N5CCC(=O)NC5=O)cnc34)CC2)CC1` [I-73], for which the half-maximal degradation concentration (DC50) lay in the range of 10 to 100 nM.

On to `C[C@@H]1CN(C[C@H]2CC[C@H](n3cc(NC(=O)c4cnn5ccc(N6C[C@H]7C[C@@H]6CO7)nc45)c(C(F)F)n3)CC2)CC[C@H]1OCC#Cc1cccn2c(N3CCC(=O)NC3=O)cnc12` [I-62], for which the DC50 was less than 10 nM.

`COc1cc2nn([C@H]3CC[C@H](CN4C[C@H]5C[C@@H]4CN5c4ccn5c(N6CCC(=O)NC6=O)cnc5c4)CC3)cc2cc1NC(=O)c1cccc(C(F)(F)F)n1` [I-56] showed a DC50 of 10 to 100 nM.

With `COc1cc2nc([C@H]3CC[C@H](CN4CCC(c5cccn6c(N7CCC(=O)NC7=O)cnc56)CC4)CC3)sc2cc1NC(=O)c1cccc(C(F)(F)F)n1` [I-79], the half-maximal degradation concentration (DC50) is less than 10 nM.

For the molecule `O=C1CCN(c2cnc3cc(C#CCN4CCN(C[C@H]5CC[C@H](n6cc(NC(=O)c7cnn8ccc(N9C[C@H]%10C[C@@H]9CO%10)nc78)c(C(F)F)n6)CC5)CC4)ccn23)C(=O)N1` [I-75], the DC50 is less than 10 nM.

For the molecule `N#Cc1cnc2c(C(=O)Nc3ccc4nn([C@H]5CC[C@H](CN6CCC(c7cccn8c(N9CCC(=O)NC9=O)cnc78)CC6)CC5)cc4c3)cnn2c1` [I-65, 6-Cyano-N-[2-[4-[[4-[3-(2,4-dioxohexahydropyrimidin-1-yl)imidazo[1,2-a]pyridin-8-yl]-1-piperidyl]methyl]cyclohexyl]indazol-5-yl]pyrazolo[1,5-a]pyrimidine-3-carboxamide], the DC50 fell in the range of 10 to 100 nM.

In the case of `N#Cc1cc2nn([C@H]3CC[C@H](CN4CCC(c5ccn6c(N7CCC(=O)NC7=O)cnc6c5)CC4)CC3)cc2cc1NC(=O)c1cccc(C(F)(F)F)n1` [I-66], the DC50 was less than 10 nM.

Take `CN(C[C@H]1CC[C@H](n2cc3cc(NC(=O)c4cccc(C(F)(F)F)n4)ncc3n2)CC1)C1CCN(c2cccn3c(N4CCC(=O)NC4=O)cnc23)CC1` [I-30]: the half-maximal degradation concentration (DC50) is 100 to 200 nM.

`COc1cc2nc([C@H]3CC[C@H](CN4CCN(c5ccn6c(N7CCC(=O)NC7=O)cnc6c5C)CC4)CC3)sc2cc1NC(=O)c1cccc(C(F)(F)F)n1` [I-50]: the DC50 was in the range of 10 to 100 nM.

Take `C[C@@H]1CN(C[C@H]2CC[C@H](n3cc(NC(=O)c4cnn5ccc(N6C[C@H]7C[C@@H]6CO7)nc45)c(C(F)F)n3)CC2)CC[C@H]1OCC#Cc1ccn2c(N3CCC(=O)NC3=O)cnc2c1` [I-64]: the DC50 was less than 10 nM.

Turning to `COc1cc2nc([C@H]3CC[C@H](CN4CCN(c5ccn6c(N7CCC(=O)NC7=O)cnc6c5OC)CC4)CC3)sc2cc1NC(=O)c1cccc(C(F)(F)F)n1` [I-48], the DC50 was in the range of 10 to 100 nM.

In turn, `COc1cc2nn([C@H]3CC[C@H](CN4C[C@@H]5C[C@H]4CN5c4cccn5c(N6CCC(=O)NC6=O)cnc45)CC3)cc2cc1NC(=O)c1cccc(C(F)(F)F)n1` [I-54] returned a DC50 of 10 to 100 nM.

Turning to `N#Cc1cc2nn([C@H]3CC[C@H](CN4CCC(c5cccn6c(N7CCC(=O)NC7=O)cnc56)CC4)CC3)cc2cc1NC(=O)c1cccc(C(F)(F)F)n1` [I-67], the DC50 is less than 10 nM.

In turn, `CN(C[C@H]1CC[C@H](n2cc3cc(NC(=O)c4cccc(C(F)(F)F)n4)ncc3n2)CC1)C1CCN(c2ccn3c(N4CCC(=O)NC4=O)cnc3c2)CC1` [I-33] gave a DC50 of less than 10 nM.

The values are drawn from patent US20250375526A1, “IRAK DEGRADERS AND USES THEREOF” (Kymera Therapeutics, Inc., priority 2020, published 2025).
